Measurements reported in ChEMBL document CHEMBL5303573, “Mapping human microbiome drug metabolism by gut bacteria and their genes” (Nature, 2019).

Assays:
[1] = The drug is tested on Bifidobacterium longum subsp. Infantis strain: CCUG52486 for biotransformation. The drug concentrations were measured before and after a 12-h incubation by liquid-chromatography-coupled mass spectrometry (LC–MS); settings: 2 µM
[2] = The drug is tested on Bacteroides caccae strain: ATCC43185 for biotransformation. The drug concentrations were measured before and after a 12-h incubation by liquid-chromatography-coupled mass spectrometry (LC–MS); settings: 2 µM
[3] = The drug is tested on Bacteroides finegoldii strain: DSM17565 for biotransformation. The drug concentrations were measured before and after a 12-h incubation by liquid-chromatography-coupled mass spectrometry (LC–MS); settings: 2 µM
[4] = The drug is tested on Bacteroides fragilis strain: HMW615 for biotransformation. The drug concentrations were measured before and after a 12-h incubation by liquid-chromatography-coupled mass spectrometry (LC–MS); settings: 2 µM
[5] = The drug is tested on Bacteroides sp. WH2 strain: WH2 for biotransformation. The drug concentrations were measured before and after a 12-h incubation by liquid-chromatography-coupled mass spectrometry (LC–MS); settings: bacteroides sp. wh2, 12 h, 2 µM
[6] = The drug is tested on Odoribacter splanchnicus strain: fecal isolate for biotransformation. The drug concentrations were measured before and after a 12-h incubation by liquid-chromatography-coupled mass spectrometry (LC–MS); settings: 2 µM
[7] = The drug is tested on Parabacteroides merdae strain: ATCC43184 for biotransformation. The drug concentrations were measured before and after a 12-h incubation by liquid-chromatography-coupled mass spectrometry (LC–MS); settings: 2 µM
[8] = The drug is tested on Anaerococcus hydrogenalis strain: DSM7454 for biotransformation. The drug concentrations were measured before and after a 12-h incubation by liquid-chromatography-coupled mass spectrometry (LC–MS); settings: 2 µM
[9] = The drug is tested on Blautia luti strain: DSM14534 for biotransformation. The drug concentrations were measured before and after a 12-h incubation by liquid-chromatography-coupled mass spectrometry (LC–MS); format: ADME; parameters: dose 2 uM, timepoint 0 vs 12 hours; settings: 2 µM
[10] = The drug is tested on Eubacterium ventriosum strain: ATCC27560 for biotransformation. The drug concentrations were measured before and after a 12-h incubation by liquid-chromatography-coupled mass spectrometry (LC–MS); format: ADME; parameters: dose 2 uM, timepoint 0 vs 12 hours; settings: 2 µM
[11] = The drug is tested on Ruminococcus lactaris strain: ATCC29176 for biotransformation. The drug concentrations were measured before and after a 12-h incubation by liquid-chromatography-coupled mass spectrometry (LC–MS); settings: 2 µM
[12] = The drug is tested on Providencia stuartii strain: ATCC25827 for biotransformation. The drug concentrations were measured before and after a 12-h incubation by liquid-chromatography-coupled mass spectrometry (LC–MS); settings: 2 µM
[13] = bacteroides intestinalis, 12 h, 2 µM
Description: The drug is tested on Bacteroides intestinalis strain: DSM17393 for biotransformation. The drug concentrations were measured before and after a 12-h incubation by liquid-chromatography-coupled mass spectrometry (LC–MS)

[14] = bacteroides thetaiotaomicron, 12 h, 2 µM
Description: The drug is tested on Bacteroides thetaiotaomicron strain: 3731 for biotransformation. The drug concentrations were measured before and after a 12-h incubation by liquid-chromatography-coupled mass spectrometry (LC–MS)

[15] = parabacteroides distasonis, 12 h, 2 µM
Description: The drug is tested on Parabacteroides distasonis strain: ATCC8503 for biotransformation. The drug concentrations were measured before and after a 12-h incubation by liquid-chromatography-coupled mass spectrometry (LC–MS)

[16] = parabacteroides johnsonii, 12 h, 2 µM
Description: The drug is tested on Parabacteroides johnsonii strain: DSM18315 for biotransformation. The drug concentrations were measured before and after a 12-h incubation by liquid-chromatography-coupled mass spectrometry (LC–MS)

[17] = segatella copri, 12 h, 2 µM
Description: The drug is tested on Prevotella copri strain: DSM18205 for biotransformation. The drug concentrations were measured before and after a 12-h incubation by liquid-chromatography-coupled mass spectrometry (LC–MS)

[18] = anaerostipes sp., 12 h, 2 µM
Description: The drug is tested on Anaerostipes sp. strain: fecal isolate for biotransformation. The drug concentrations were measured before and after a 12-h incubation by liquid-chromatography-coupled mass spectrometry (LC–MS)

[19] = limosilactobacillus reuteri cf48-3a, 12 h, 2 µM
Description: The drug is tested on Lactobacillus reuteri CF48-3A strain: BEI HM-102 for biotransformation. The drug concentrations were measured before and after a 12-h incubation by liquid-chromatography-coupled mass spectrometry (LC–MS)

[20] = akkermansia muciniphila, 12 h, 2 µM
Description: The drug is tested on Akkermansia muciniphila strain: ATCC BAA-835 for biotransformation. The drug concentrations were measured before and after a 12-h incubation by liquid-chromatography-coupled mass spectrometry (LC–MS)

Row | Compound | Bacterial Biotransformation [1] | Bacterial Biotransformation [2] | Bacterial Biotransformation [3] | Bacterial Biotransformation [4] | Bacterial Biotransformation [5] | Bacterial Biotransformation [6] | Bacterial Biotransformation [7] | Bacterial Biotransformation [8] | Bacterial Biotransformation [9] | Bacterial Biotransformation [10] | Bacterial Biotransformation [11] | Bacterial Biotransformation [12] | Bacterial Biotransformation [13] | Bacterial Biotransformation [14] | Bacterial Biotransformation [15] | Bacterial Biotransformation [16] | Bacterial Biotransformation [17] | Bacterial Biotransformation [18] | Bacterial Biotransformation [19] | Bacterial Biotransformation [20]
1 | CC[C@@H](CO)NC(=O)[C@@H]1C=C2c3cccc4c3c(cn4C)C[C@H]2N(C)C1.O=C(O)/C=C\C(=O)O [METHYSERGIDE MALEATE] | Compound metabolized | Compound metabolized | Compound metabolized | Compound NOT metabolized | Compound metabolized | Compound metabolized | Compound metabolized | Compound metabolized | Compound metabolized | Compound metabolized | Compound metabolized | Compound metabolized | Compound metabolized | Compound metabolized | Compound metabolized | Compound metabolized | Compound metabolized | Compound metabolized | Compound metabolized | Compound metabolized
2 | COc1ccccc1OCCNCC(O)COc1cccc2[nH]c3ccccc3c12 (stereo not given) [CARVEDILOL] | Compound NOT metabolized | Compound metabolized | Compound metabolized | Compound metabolized | Compound metabolized | Compound NOT metabolized | Compound metabolized | Compound metabolized | Compound metabolized | Compound metabolized | Compound metabolized | Compound metabolized | Compound metabolized | Compound metabolized | Compound metabolized | Compound metabolized | Compound metabolized | Compound metabolized | Compound NOT metabolized | Compound metabolized
3 | CC(=O)Nc1ccc(OC(C)=O)cc1 [DIACETAMATE] | Compound metabolized | Compound metabolized | Compound metabolized | Compound metabolized | Compound metabolized | Compound metabolized | Compound metabolized | Compound metabolized | Compound metabolized | Compound metabolized | Compound metabolized | Compound metabolized | Compound metabolized | Compound metabolized | Compound metabolized | Compound metabolized | Compound metabolized | Compound metabolized | Compound metabolized | Compound metabolized
4 | CC(=O)OCC(=O)[C@@]12N=C(C)O[C@@H]1C[C@H]1[C@@H]3CCC4=CC(=O)C=C[C@]4(C)[C@H]3[C@@H](O)C[C@@]12C [DEFLAZACORT] | Compound metabolized | Compound metabolized | Compound metabolized | Compound metabolized | Compound metabolized | Compound metabolized | Compound metabolized | Compound metabolized | Compound metabolized | Compound metabolized | Compound metabolized | Compound metabolized | Compound metabolized | Compound metabolized | Compound metabolized | Compound metabolized | Compound metabolized | Compound metabolized | Compound metabolized | Compound metabolized
5 | COc1c(C)c2c(c(O)c1C/C=C(\C)CCC(=O)OCCN1CCOCC1)C(=O)OC2 [MYCOPHENOLATE MOFETIL] | Compound metabolized | Compound metabolized | Compound metabolized | Compound metabolized | Compound metabolized | Compound metabolized | Compound metabolized | Compound metabolized | Compound metabolized | Compound metabolized | Compound metabolized | Compound metabolized | Compound metabolized | Compound metabolized | Compound metabolized | Compound metabolized | Compound metabolized | Compound metabolized | Compound metabolized | Compound metabolized
